Source: patent US20090264382A1, “Methods for Treating Hematopoietic Neoplasms” (priority 2007, published 2009)

Legend:
VCAM-1 = test: IL-1β-induced VCAM-1 expression in HUVECs, flow cytometry; assay type: cell-based, human; conditions: 1 to 5 nM
Procedure: Human umbilical vein endothelial cells (HUVECs) were activated with IL-1β (5 ng/ml) for 24 hours with CA4P added at concentrations from 0 to 5 nM. VCAM-1 expression was determined by flow cytometry with phytoerythrin-conjugated anti-CD106 (VCAM-1) mAb.

GFP+HL60 cells = test: Systemic in vivo leukemia model, GFP+HL60; parameters: species or system NOD-SCID mice
Procedure: NOD-SCID mice were intravenously inoculated with 1×10^7 GFP+HL60 cells. The HL60 cells were labeled with green fluorescent protein (GFP) by a lentiviral construct, and inoculated systemically through tail vein injection. Three days after inoculation, mice were divided into 2 groups of five mice. One group was treated every other day with PBS (control) and the second group received 25 mg/kg CA4P every other day. Each experiment was done three times. At day 30 after the start of the experiment, two mice from each group were killed, and their organs (spleen, liver and lung), peripheral blood and marrow of surgically removed femurs were collected, and analyzed for the presence of human leukemic cells by flow cytometry. Single cell suspension was stained using phytoerythrin-labeled anti-human CD45 mAb (Pharmingen), and the percentage of double positive human CD45-PE and GFP cells was determined flow cytometer. The extent of GFP+HL60 cell infiltration was assessed by fluorescence microscopy. In a second set of experiments, GFP+U937 cells were used instead of HL60 cells, and the animals sacrificed after 30 days.
In the untreated control group, the mice survived for 32-40 days only and succumbed to systemic spread of leukemia. […] This increase in survival was accompanied by a decrease in circulating leukemic cells observed 30 days after leukemic cell injection, as assessed by flow cytometry determination of double positive cells for human CD45 and GFP (0.9% for control vs. 0.2% for CA4P treatment, p<0.05, n=5) (FIG. 12). Thirty days after xenotransplantation of GFP+HL60 cell injection, the presence of GFP+HL60 cells in the peripheral blood and the different tissues of the mice was assessed by quantification of double positive GFP and human CD45 cells by flow cytometry. […] In contrast, control mice had massive leukemic infiltrates in the spleen (5.2%), liver (2.6%) and lung (3.5%) (FIG. 12).

KG1a leukemic cells = test: Cell cycle analysis with propidium iodide; assay type: cell-based, human; conditions: 5 and 10 nM, 48 hours
leukemic cells [1] = test: Intracellular ROS detection with H2DCFDA; assay type: cell-based, human; conditions: after CA4P exposure
Procedure: Intracellular ROS were detected as previously described (Krejsa & Schieven, Methods Mol Biol 99:35-47 (2000)). Briefly, leukemic cells were loaded with 2 μM H2DCFDA (Molecular Probes) in assay buffer (RPMI with 10 mM HEPES) for 30 min. at 37° C. and mean fluorescent intensity was measured by flow cytometry. Results are shown from triplicate measurements (±SEM) and are representative of three independent experiments (*p<0.05 as compared with untreated cells; n=3).

[2] = Bone marrow toxicity, serial complete blood counts; assay type: in vivo, CD1 mice; conditions: 25 mg/kg subcutaneously every other day for 4 weeks
Procedure: Eight week-old sex matched CD1 mice (Jackson Laboratory, Bar Harbor, Me.) were treated with CA4P at 25 mg/kg subcutaneously every other day for 4 weeks.

[3] = tested on: HL60 and U937 AML cells on HUVECs; test: Leukemic cell adhesion to and co-culture with HUVECs; assay type: cell-based, human
Procedure: To assess leukemic cell adhesion, 1×10^5 GFP+HL60 or U937 cells in X-vivo/5% FBS were added per well. The percentage of GFP++adherent cells was quantified by fluorescent microscopy. To compare the resistance of vascular-adherent to non-adherent leukemic cells in co-culture, leukemic cells were seeded on either IL-1β-activated or non-activated HUVECs, with addition of CA4P. After 48 hours, GFP++leukemic cells were removed from the wells by trypsinization and quantified by fluorescence microscopy and flow cytometry. […] The number of adherent cells is expressed as a percentage of total leukemic cells and representative of three independent experiments performed in triplicate SEM (*p<0.05 as compared to CA4P-untreated control).
Survival of GFP+U937 (E) and HL60 (F) leukemic cells co-cultured with HUVECs is expressed as a percentage of total cells. Adherent (i.e. attached to IL-1β activated HUVECs) and non-adherent leukemic cells (i.e. cultured with non-activated HUVECs) are depicted. Results are representative of three independent experiments performed in triplicate±SEM (*p<0.05).

leukemic cells [4] = test: Release of mitochondrial membrane proteins, immunofluorescence; assay type: cell-based, human; conditions: after CA4P exposure, data not shown
Text: Mitochondrial damage may result in the release of pro-apoptotic mitochondrial membrane proteins (MMPs) such as cytochrome c, SMAC/diablo and ARTS. […] Cytochrome c and ARTS were detected using mAb clone 6H2.B4 (1:100, BD Pharmingen) and polyclonal-antibody A3720 (1:50, Sigma), both followed by AlexaFluor 488 conjugated secondary antibody (1:200, Molecular Probes) and analyzed by confocal microscopy.

HL60 subcutaneous tumors = test: Subcutaneous in vivo leukemia model; parameters: species or system NOD-SCID mice
Procedure: HL60 (5×10^6 cells) were injected subcutaneously into the dorsa of seven-week-old NOD-SCID mice (Jackson Laboratory). When mice bore a tumor (i.e. after 12 days), 4 experimental groups were randomized, each with 9 animals. Daily treatment was initiated at this time: the CA4P groups were subjected to intraperitoneal injection of CA4P at 10, 25 and 50 mg/kg body weight, and the control group received PBS. After a 3-day treatment, animals were sacrificed, tumors removed and then subjected to immunohistochemical analysis. Tumors were embedded in paraffin, serially sectioned, and stained with hematoxylin and eosin for histological analysis. Cell death was assessed by TUNEL assay. Cell death within paraffin-embedded tumor sections was detected by TUNEL reaction (Roche Diagnostics). The detection of cell death in this assay relies on the detection of free 3′OH DNA ends.
Tumors from mice treated with CA4P for 3 days were softer and hemorrhagic (particularly when treated with 50 mg/kg) than those observed in the control group. […] The control tumor sections were negative for TUNEL reaction. […] The extent of intra-tumor vascularization within the different groups was assessed by immunostaining for the endothelial-specific antigen MECA-32. […] The neo-vessel density was evaluated by microscopic counting of 5 fields at 10× magnification, and presented as mean number of microvessels per microscopic field±SEM (*p<0.05 as compared with the PBS control group; n=5). The decrease in intra-tumor vascularization induced by CA4P was dose dependent (54±13%, 68±6% and 90±3% decrease for 10, 25 and 50 mg/kg, respectively).

[5] = day 30, 25 mg/kg every other day

COc1ccc(/C=C\c2cc(OC)c(OC)c(OC)c2)cc1OP(=O)(O)O [CA4P, combretastatin A-4 phosphate]
apoptosis of HUVECs (VCAM-1): without inducing apoptosis
VCAM-1 expression on IL-1β-activated HUVECs (VCAM-1; 24 hours, IL-1β 5 ng/ml): significantly reduced expression of VCAM-1
survival of intravenously xenotransplanted mice (GFP+HL60 cells; 25 mg/kg every other day): significantly increased survival
circulating leukemic cells (human CD45 and GFP double positive) in peripheral blood (GFP+HL60 cells; [5]): 0.2%
engraftment of leukemic cells in the bone marrow (GFP+HL60 cells; [5]): completely eradicated
human CD45 and GFP positive cells in the liver (GFP+HL60 cells; [5]): 0.1%
infiltration of GFP+HL60 cells in the lung (GFP+HL60 cells; [5]): no evidence of infiltration
infiltration of GFP+HL60 cells in the spleen (GFP+HL60 cells; [5]): no evidence of infiltration
cell cycle effect (KG1a leukemic cells): G2/M arrest
intracellular ROS (H2DCFDA fluorescence) (leukemic cells [1]): rapid accumulation of superoxide anions
WBC and absolute neutrophil count [2]: slight decrease
attachment of HL60 and U937 AML cells to HUVECs ([3]; in vitro): decreased attachment
sensitivity of leukemic cells to CA4P with decreased adhesion to HUVECs ([3]; non-adherent vs adherent to IL-1β activated HUVECs, 48 hours): more sensitive
mitochondrial membrane protein release (leukemic cells [4]): release of cytochrome c and ARTS from mitochondria
decrease in intra-tumor vascularization (MECA-32 microvessel density) (HL60 subcutaneous tumors; 10 mg/kg i.p. daily, 3 days): 54±13%
decrease in intra-tumor vascularization (MECA-32 microvessel density) (HL60 subcutaneous tumors; 25 mg/kg i.p. daily, 3 days): 68±6%
decrease in intra-tumor vascularization (MECA-32 microvessel density) (HL60 subcutaneous tumors; 50 mg/kg i.p. daily, 3 days): 90±3%
tumor histology (HL60 subcutaneous tumors; 10, 25 and 50 mg/kg, 3 days): largely necrotic
cell death in tumor sections (TUNEL) (HL60 subcutaneous tumors; low to high doses, data not shown): most of the leukemic cells were non-viable
